Like-named read-outs stand apart in the source and are kept apart here.
Assays:
HCT116 cells = test: Antiproliferative activity, Alamar Blue assay, HCT116 cells; format: cell-based, human; design: key to HCT116 antiproliferative activity pIC50: pIC50 = -log IC50 (IC50: conc. reducing growth to 50% of control); details: for IC50: Homo sapiens, HCT-116, HCT116 cells, read-out: HCT116 antiproliferative activity pIC50 (converted)
How it was run: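 HCT116 cells seeded, adhered 24 h, then exposed to compound for 4 days; Alamar Blue (resazurin) added for 4 h at 37 °C, fluorescence read at 540/590 nm. Viability as % of untreated control, triplicate wells; IC50 by probit analysis, reported as pIC50.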

Human PARP-1 enzyme = target: T1, Human PARP-1 enzyme (Homo sapiens, UniProt P09874); test: In vitro Scintillation Proximity Assay (SPA) for PARP-1 inhibitory activity; format: biochemical; details: read-out: in vitro SPA assay PARP-1 pIC50 (converted)
T1 construct: purchased Trevigen
T1 sequence (P09874 whole entry): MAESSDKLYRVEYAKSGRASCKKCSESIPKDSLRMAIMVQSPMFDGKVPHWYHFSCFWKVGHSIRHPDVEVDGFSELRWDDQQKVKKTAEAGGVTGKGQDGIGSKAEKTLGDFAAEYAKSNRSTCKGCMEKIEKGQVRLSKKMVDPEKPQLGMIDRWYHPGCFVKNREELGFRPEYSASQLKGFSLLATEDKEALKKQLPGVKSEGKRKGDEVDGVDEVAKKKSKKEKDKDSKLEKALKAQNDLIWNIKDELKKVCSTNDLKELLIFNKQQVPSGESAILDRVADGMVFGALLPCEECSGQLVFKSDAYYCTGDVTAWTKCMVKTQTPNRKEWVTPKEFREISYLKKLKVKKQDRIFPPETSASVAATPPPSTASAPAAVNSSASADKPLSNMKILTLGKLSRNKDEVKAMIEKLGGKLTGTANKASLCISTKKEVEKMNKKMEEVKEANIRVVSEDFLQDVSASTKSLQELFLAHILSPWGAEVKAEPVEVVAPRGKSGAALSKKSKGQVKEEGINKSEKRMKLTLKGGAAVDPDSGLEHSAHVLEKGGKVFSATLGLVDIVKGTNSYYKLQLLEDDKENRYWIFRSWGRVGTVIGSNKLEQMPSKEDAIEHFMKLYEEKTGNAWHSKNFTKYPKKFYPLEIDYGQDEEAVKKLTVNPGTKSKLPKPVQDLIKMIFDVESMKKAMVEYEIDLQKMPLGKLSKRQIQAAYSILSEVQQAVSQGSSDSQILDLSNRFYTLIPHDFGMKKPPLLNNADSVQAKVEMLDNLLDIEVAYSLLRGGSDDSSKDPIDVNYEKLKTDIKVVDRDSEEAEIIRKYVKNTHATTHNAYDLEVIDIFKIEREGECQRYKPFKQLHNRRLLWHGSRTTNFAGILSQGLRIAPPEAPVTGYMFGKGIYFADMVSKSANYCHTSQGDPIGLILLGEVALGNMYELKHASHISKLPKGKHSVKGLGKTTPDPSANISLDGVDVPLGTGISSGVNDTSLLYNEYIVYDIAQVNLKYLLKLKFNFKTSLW
How it was run: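 SPA assay: nicked-DNA-activated PARP-1 (0.1–0.2 μg/ml) ADP-ribosylates biotinylated histones (2 μg/ml) using [3H]-NAD+, 20 min at RT in Tris pH 8/DTT/MgCl2, stopped with 2 mM NAD+. Blank-subtracted cpm expressed as % control; IC50 by linear interpolation, reported as pIC50 (10−5 to 3×10−9 M tested).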

CCc1cc2ccc(C(C)(C#N)Cc3cc(N(C)C)nc(C#N)n3)cc2[nH]c1=O (centres unmarked) [Compound 317]
IC50 (HCT116 cells; Alamar Blue): 5010 nM
IC50 (Human PARP-1 enzyme): 79.4 nM

CCc1cc2ccc(C(C)(C#N)Cc3ccc4c(c3)OC(F)(F)O4)cc2[nH]c1=O (centres unmarked) [Compound 346]
IC50 (Human PARP-1 enzyme): 79.4 nM

CCc1cc2ccc([C@](C)(C#N)Cc3cccc(/C=C/S(C)(=O)=O)c3)cc2[nH]c1=O (single isomer, unassigned) [Compound 291]
IC50 (HCT116 cells; Alamar Blue): 200 nM
IC50 (Human PARP-1 enzyme): 25.1 nM

Cc1cc2ccc(C(C)(C#N)Cc3cccc(OCC4CCOCC4)c3)cc2[nH]c1=O (centres unmarked) [Compound 261]
IC50 (HCT116 cells; Alamar Blue): 5010 nM
IC50 (Human PARP-1 enzyme): 100 nM

Cc1cc2ccc(C(C)(C#N)Cc3cccc(C=Cc4ccccc4)c3)cc2[nH]c1=O (centres unmarked) [Compound 179]
IC50 (HCT116 cells; Alamar Blue): 2000 nM
IC50 (Human PARP-1 enzyme): 200 nM

CCc1cc2ccc(C(C)(C#N)Cc3cccc(N4CCC(N(C)C)C4)n3)cc2[nH]c1=O (centres unmarked) [Compound 209]
IC50 (HCT116 cells; Alamar Blue): 2000 nM
IC50 (Human PARP-1 enzyme): 50.1 nM

CCc1cc2ccc(C(C)(C#N)Cc3cc(N(C)C)nc(OC)n3)cc2[nH]c1=O (centres unmarked) [Compound 354]
IC50 (HCT116 cells; Alamar Blue): 3160 nM
IC50 (Human PARP-1 enzyme): 79.4 nM

CCc1cc2ccc(C(C)(C#N)Cc3nc(N(C)C)cc(N(C)C)n3)cc2[nH]c1=O (centres unmarked) [Compound 205]
IC50 (HCT116 cells; Alamar Blue): 631 nM
IC50 (Human PARP-1 enzyme): 79.4 nM

CCc1cc2ccc(C(C)(C#N)Cc3nc(C#N)cc(OC)n3)cc2[nH]c1=O (single isomer, unassigned) [Compound 204]
HCT116 antiproliferative activity pIC50 (HCT116 cells; HCT116 cells): 7.0
IC50 (Human PARP-1 enzyme): 39.8 nM

CCc1cc2ccc(C(C)(C#N)Cc3cccc(C#Cc4cncn4C)n3)cc2[nH]c1=O (centres unmarked) [Compound 217]
IC50 (HCT116 cells; Alamar Blue): 5010 nM
IC50 (Human PARP-1 enzyme): 79.4 nM

CCc1cc2ccc(C(C)(C#N)CN3CCC(c4ccccc4)CC3)cc2[nH]c1=O (centres unmarked) [Compound 375]
IC50 (HCT116 cells; Alamar Blue): 2000 nM
IC50 (Human PARP-1 enzyme): 158 nM

CCc1cc2ccc(C(C)(C#N)Cc3cccc(CCS(C)(=O)=O)c3)cc2[nH]c1=O (centres unmarked) [Compound 178]
IC50 (HCT116 cells; Alamar Blue): 3980 nM
IC50 (Human PARP-1 enzyme): 63.1 nM

Cc1cc2ccc(C(C)(C#N)Cc3cccc(Oc4ccccc4)c3)cc2[nH]c1=O (centres unmarked) [Compound 305]
IC50 (HCT116 cells; Alamar Blue): 794 nM
IC50 (Human PARP-1 enzyme): 200 nM

CCc1cc2ccc(C(C)(C#N)Cc3ccc(F)c(F)c3)cc2[nH]c1=O (centres unmarked) [Compound 281]
IC50 (HCT116 cells; Alamar Blue): 2000 nM
IC50 (Human PARP-1 enzyme): 39.8 nM

CCc1cc2ccc(C(C#N)(Cc3ccccc3)c3ccc(C#N)cc3)cc2[nH]c1=O (centres unmarked) [Compound 26]
IC50 (HCT116 cells): 2510 nM
IC50 (Human PARP-1 enzyme): 1580 nM

CCc1cc2ccc(C(C)(C#N)Cc3cc(F)ccc3F)cc2[nH]c1=O (centres unmarked) [Compound 280]
IC50 (HCT116 cells; Alamar Blue): 794 nM
IC50 (Human PARP-1 enzyme): 50.1 nM

Cc1cc2ccc([C@@](C)(C#N)C3CCc4ccccc43)cc2[nH]c1=O (single isomer, unassigned) [Compound 385]
IC50 (HCT116 cells; Alamar Blue): 3980 nM
IC50 (Human PARP-1 enzyme): 100 nM

CCc1cc2ccc(C(C)(C#N)CN3CCN(c4ccccn4)CC3)cc2[nH]c1=O (centres unmarked) [Compound 233]
IC50 (HCT116 cells; Alamar Blue): 1000 nM
IC50 (Human PARP-1 enzyme): 50.1 nM

Cc1cc2ccc(C(C)(C#N)Cc3cccc(/C=C/CCO)c3)cc2[nH]c1=O (centres unmarked) [Compound 409]
IC50 (HCT116 cells; Alamar Blue): 398 nM
IC50 (Human PARP-1 enzyme): 100 nM

Cc1nc(-c2ccccc2)sc1CC(C)(C#N)c1ccc2cc(C)c(=O)[nH]c2c1 (centres unmarked) [Compound 235]
IC50 (HCT116 cells; Alamar Blue): 1580 nM
IC50 (Human PARP-1 enzyme): 126 nM

CCc1cc2ccc(C(C#N)(Cc3ccccc3)c3ccccc3)cc2[nH]c1=O (centres unmarked) [Compound 27]
IC50 (HCT116 cells): 3980 nM
IC50 (Human PARP-1 enzyme): 1000 nM

CCc1cc2ccc(C(C)(C#N)Cc3cccc(NC)c3)cc2[nH]c1=O (centres unmarked) [Compound 257]
IC50 (HCT116 cells; Alamar Blue): 631 nM
IC50 (Human PARP-1 enzyme): 79.4 nM

CCCC(C#N)(Cc1ccccc1)c1ccc2cc(CC)c(=O)[nH]c2c1 (centres unmarked) [Compound 31]
IC50 (HCT116 cells): 3160 nM
IC50 (Human PARP-1 enzyme): 2000 nM

Cc1cc2ccc(C(C)(C#N)Cc3cccc(Oc4ccc(F)cc4)c3)cc2[nH]c1=O (centres unmarked) [Compound 192]
IC50 (HCT116 cells; Alamar Blue): 631 nM
IC50 (Human PARP-1 enzyme): 398 nM

CCc1cc2ccc(C(C)(C#N)Cc3cccc(-c4ccc[nH]4)c3)cc2[nH]c1=O (centres unmarked) [Compound 176]
IC50 (HCT116 cells; Alamar Blue): 5010 nM
IC50 (Human PARP-1 enzyme): 50.1 nM

CCc1cc2ccc([C@@](C)(C#N)Cc3cccc(C#CCO)c3)cc2[nH]c1=O (single isomer, unassigned) [Compound 295]
IC50 (HCT116 cells; Alamar Blue): 10000 nM
IC50 (Human PARP-1 enzyme): 25.1 nM

CCc1cc2ccc(C(C)(C#N)Cc3cccc4[nH]ccc34)cc2[nH]c1=O (centres unmarked) [Compound 379]
IC50 (HCT116 cells; Alamar Blue): 1260 nM
IC50 (Human PARP-1 enzyme): 25.1 nM

CCc1cc2ccc(C(C)(C#N)Cc3cc(C#N)nc(C)n3)cc2[nH]c1=O (centres unmarked) [Compound 319]
IC50 (HCT116 cells; Alamar Blue): 2510 nM
IC50 (Human PARP-1 enzyme): 200 nM

CCc1cc2ccc(C(C)(C#N)Cc3cc(Cl)nc(C)n3)cc2[nH]c1=O (centres unmarked) [Compound 365]
IC50 (HCT116 cells; Alamar Blue): 631 nM
IC50 (Human PARP-1 enzyme): 126 nM

CCc1cc2ccc(C(C)(C#N)Cc3cc(Cl)nc(N(C)C)c3)cc2[nH]c1=O (centres unmarked) [Compound 323]
IC50 (HCT116 cells; Alamar Blue): 631 nM
IC50 (Human PARP-1 enzyme): 79.4 nM

Source: patent publication US8778966B2, “Quinolinone derivatives as PARP and tank inhibitors” (Janssen Pharmaceutica, NV, priority 2007, dated 2014)
